Measured values taken from US20250108119A1, “NOVEL STEROID PAYLOADS, STEROID LINKERS, ADCs CONTAINING AND USE THEREOF” (IMMUNEXT, INC., priority 2021, published 2025).

Tests used:
human PBMC = experiment: Cytokine production (IL-1β, IL-6) at 24 hr by human PBMC incubated with 1 ng/mL LPS; assay type: cell-based; details: free steroid payloads, serial dilutions, 1 ng/mL LPS, 24 hr
Protocol: (§1) FIG. 51: INX-SM-3, INX-SM-4, and INX-SM-1 inhibit IL-1β (left) and IL-6 (right) production. Cytokine levels were measured at 24 hr for human PBMCS incubated with 1 ng/mL LPS and serial dilutions (1000-1 nM) of steroid payloads, with the no treatment control plotted on the log-scale x-axis at <1 nM; n=1 donor, standard deviation plotted from technical duplicates.
as §1, with “52: INX-SM-1,” for “51:”, “INX-SM-4” for “INX-SM-4,”, “INX-SM-6” for “INX-SM-1”, “IL-1β” for “IL-1β (left) and IL-6 (right)”, “levels” for “levels were”, “ng/ml” for “ng/mL”
(§2) FIG. 53: INX-SM-9, INX-SM-31 and INX-SM-35 inhibit IL-1β (top) and IL-6 (bottom) production. Cytokine levels measured at 24 hr for human PBMCS incubated with 1 ng/mL LPS and serial dilutions (1000-0.2 nM) of steroid payloads, with the no treatment control plotted on the log-scale x-axis at <0.2 nM; n=2 donors-representative donor shown. Standard deviation plotted from technical duplicates.
as §2, with “54: INX-SM-32 inhibits” for “53: INX-SM-9, INX-SM-31 and INX-SM-35 inhibit”, “(500-1” for “(1000-0.2”, “<1” for “<0.2”, “n=2. Representative” for “n=2 donors-representative”
Cytokine levels measured at 24 hr for human PBMCS incubated with 1 ng/ml LPS and serial dilutions (1000-0.5 nM) of steroid payloads, with the no treatment control plotted on the log-scale x-axis at <0.5 nM; n=1 donor, standard deviation plotted from technical duplicates.
FIG. 56: INX-SM-2 and INX-SM-7 show inhibition in IL-1β. Average Cytokine levels measured at 24 hr for human PBMCS incubated with 1 ng/ml LPS and serial dilutions (1000-0.16 nM) of steroid payloads, with the no treatment control plotted on the log-scale x-axis at <0.16 nM; n=1, standard deviation plotted from technical duplicates. […]
Average cytokine levels measured at 24 hr for human PBMC incubated with 1 ng/ml LPS and serial dilutions (100-0.032 nM) of glucocorticoid payloads; n=1, mean of technical duplicates.
Average cytokine levels measured at 24 hr for human PBMC incubated with 1 ng/mL LPS and serial dilutions (1000-0.32 nM) of glucocorticoid payloads; n=1, mean of technical duplicates.
Cytokine levels measured at 24 hr for human PBMC incubated with 1 ng/mL LPS and serial dilutions (1000-0.5 nM) of steroid payloads, with the no treatment control plotted on the log-scale x-axis at <0.5 nM; n=1 donor, mean of technical duplicates plotted.
Average cytokine levels for A. hull-1β B. huIL-6 measured at 24 hr for human PBMC incubated with 1 ng/mL LPS and serial dilutions (1000-0.16 nM) of conjugated steroid linker payloads, with the no treatment control plotted on the log-scale x-axis at <0.16 nM; n=1, standard deviation plotted from technical duplicates. Values above the ULOQ (12,500 pg/mL for IL-1b and 150,000 pg/mL for IL-6) were plotted as the extrapolated value.
Average cytokine levels for IL-1β measured at 24 hr for human PBMC incubated with 1 ng/mL LPS and serial dilutions (1000-0.16 nM) of conjugated steroid linker payloads, with the no treatment control plotted on the log-scale x-axis at <0.16 nM; n=1, mean plotted of technical duplicates
Average cytokine levels for IL-1β measured at 24 hr for human PBMC incubated with 1 ng/mL LPS and serial dilutions (1000-0.16 nM) of conjugated steroid linker payloads, with the no treatment control plotted on the log-scale x-axis at <0.16 nM; n=1, mean plotted of technical duplicates.
FIG. 66: Analogs of INX V are potent relative to INX231J. […]

[1] = tested on: LPS stimulated human PBMCs; experiment: LPS stimulated human PBMC, IL-1β and IL-6 ELISA; assay type: cell-based; details: for inhibition of IL-1β production / inhibition of IL-1β and IL-6 production: 24 hr; for inhibition of IL-1β and IL-6 production: Experiment 1: free payload 1000-1 nM, 1 ng/ml LPS
Protocol: The potency of novel steroids was assessed in a model of LPS stimulated human peripheral blood mononuclear cells (PBMCS). Stimulated PBMCs in this assay produce multiple pro-inflammatory cytokines1.
In all the following experiments, human PBMC, isolated from 1-2 healthy donors per study, were stimulated with LPS to induce cytokine production.
LPS was added either immediately after addition of free payload, or in the case of conjugates, four hours after addition of the conjugate.
Cells were plated in flat bottom 96 well plates at a final concentration of 150,000 cells/well, with technical duplicates for each condition.
Test agents were serially diluted in the assay media and added to a final concentration of 1,000 nM-1 nM or 0.2 nM depending on the assay or as a no treatment control.
LPS stimulation was added to a final concentration of 1 ng/ml.
Human IL-1β and IL-6 ELISA kits were used on supernatants according to vendor protocols. All graphs were prepared with GraphPad (Prism).

[2] = Experiment 2: free payload 1000-1 nM, n=1 donor
[3] = Experiment 6: free payload 1000-0.16 nM

C[C@]12C=CC(=O)C=C1CC[C@@H]1[C@@H]2[C@@H](O)C[C@@]2(C)[C@H]1C[C@H]1O[C@@H](c3cnc(Cc4cccc(N)c4)s3)O[C@]12C(=O)CO [INX-SM-6] was tested, and the “inhibition of IL-1β production” value (human PBMC) was “inhibit” and the “inhibition of IL-1β production” value [1, 2] was “show inhibition in IL-1β production”.
C[C@]12C=CC(=O)C=C1CC[C@@H]1[C@@H]2[C@@H](O)C[C@@]2(C)[C@H]1C[C@H]1O[C@@H](c3ccc(CC4CC45CCC(NC(=O)[C@H](CCC(=O)O)NC(=O)CNC(=O)CBr)CC5)cc3)O[C@]12C(=O)CO (stereo partly drawn) [INX A9, (4S)-4-(2-(2-bromoacetamido)acetamido)-5-((1-(4-((6aR,6bS,7S,8aS,8bS,10R,11aR,12aS,12bS)-7-hydroxy-8b-(2-hydroxyacetyl)-6a,8a-dimethyl-4-oxo-2,4,6a,6b,7,8,8a,8b,11a,12,12a,12b-dodecahydro-1H-naphtho[2′,1′:4,5]indeno[1,2-d][1,3]dioxol-10-yl)benzyl)spiro[2.5]octan-6-yl)amino)-5-oxopentanoic acid] was tested, and the “potency of conjugated linker payloads over INX J (conclusions)” value (shortened to “potency … over INX J (conclusions)”) [1] was “enhanced potency”.
C[C@]12C=CC(=O)C=C1CC[C@@H]1[C@@H]2[C@@H](O)C[C@@]2(C)[C@H]1C[C@H]1O[C@H](c3ccc(CC45CC(N)(C4)C5)cc3)O[C@]12C(=O)CO [INX-SM-53, (6aR,6bS,7S,8aS,8bS,10S,11aR,12aS,12bS)-10-(4-((3-aminobicyclo[1.1.1]pentan-1-yl)methyl)phenyl)-7-hydroxy-8b-(2-hydroxyacetyl)-6a,8a-dimethyl-1,2,6a,6b,7,8,8a,8b, 11a,12,12a,12b-dodecahydro-4H-naphtho[2′,1′:4,5]indeno[1,2-d][1,3]dioxol-4-one] was tested, and the “inhibition of IL-1β and IL-6 production” value ([1]; n=1 donor) was “did not show inhibition”.
With C[C@]12C=CC(=O)C=C1CC[C@@H]1[C@@H]2[C@@H](O)C[C@@]2(C)[C@H]1C[C@H]1O[C@H](C34CC(Cc5cccc(N)c5)(C3)C4)O[C@]12C(=O)CO [INX-SM-54, (6aR,6bS,7S,8aS,8bS,10S,11aR,12aS,12bS)-10-(3-(3-aminobenzyl)bicyclo[1.1.1]pentan-1-yl)-7-hydroxy-8b-(2-hydroxyacetyl)-6a,8a-dimethyl-1,2,6a,6b,7,8,8a,8b,11a,12,12a,12b-dodecahydro-4H-naphtho[2′,1′:4,5]indeno[1,2-d][1,3]dioxol-4-one] the “inhibition of IL-1β and IL-6 production” value ([1]; n=1 donor) was “did not show inhibition”.
In the case of C[C@]12C=CC(=O)C=C1[C@@H](F)C[C@H]1[C@@H]3C[C@H]4O[C@@H](c5ccc(CC6CC7(C6)CC(NC(=O)[C@H](CCC(=O)O)NC(=O)CNC(=O)CBr)C7)cc5)O[C@@]4(C(=O)COP(=O)(O)O)[C@@]3(C)C[C@H](O)[C@@]12F (stereo partly drawn) [INX A12, (S)-4-(2-(2-bromoacetamido)acetamido)-5-((6-(4-((2S,6aS,6bR,7S,8aS,8bS,10R,11aR,12aS,12bS)-2,6b-difluoro-7-hydroxy-6a,8a-dimethyl-4-oxo-8b-(2-(phosphonooxy)acetyl)-2,4,6a,6b,7,8,8a,8b,11a,12,12a,12b-dodecahydro-1H-naphtho[2′,1′:4,5]indeno[1,2-d][1,3]dioxol-10-yl)benzyl)spiro[3.3]heptan-2-yl)amino)-5-oxopentanoic acid], the “potency … over INX J (conclusions)” value [1] is reported as “enhanced potency”.
In the case of C[C@]12C=CC(=O)C=C1CC[C@@H]1[C@@H]2[C@@H](O)C[C@@]2(C)[C@H]1C[C@H]1O[C@@H](c3ccc(CC4CC5(C4)CC(NC(=O)[C@H](CCC(=O)O)NC(=O)CNC(=O)CBr)C5)cc3)O[C@]12C(=O)COP(=O)(O)O (stereo partly drawn) [INX A7, (S)-4-(2-(2-bromoacetamido)acetamido)-5-((6-(4-((6aR,6bS,7S,8aS,8bS,10R,11aR,12aS,12bS)-7-hydroxy-6a,8a-dimethyl-4-oxo-8b-(2-(phosphonooxy)acetyl)-2,4,6a,6b,7,8,8a,8b,11a,12,12a,12b-dodecahydro-1H-naphtho[2′,1′:4,5]indeno[1,2-d][1,3]dioxol-10-yl)benzyl)spiro[3.3]heptan-2-yl)amino)-5-oxopentanoic acid], the “potency … over INX J (conclusions)” value [1] is reported as “enhanced potency”.
For C[C@]12C=CC(=O)C=C1[C@@H](F)C[C@H]1[C@@H]3C[C@H]4O[C@@H](c5ccc(CC67CC(N)(C6)C7)cc5)O[C@@]4(C(=O)CO)[C@@]3(C)C[C@H](O)[C@@]12F [INX-SM-24, (2S,6aS,6bR,7S,8aS,8bS,10R,11aR,12aS,12bS)-10-(4-((3-aminobicyclo[1.1.1]pentan-1-yl)methyl)phenyl)-2,6b-difluoro-7-hydroxy-8b-(2-hydroxyacetyl)-6a,8a-dimethyl-1,2,6a,6b,7,8,8a,8b,11a,12,12a,12b-dodecahydro-4H-naphtho[2′,1′:4,5]indeno[1,2-d][1,3]dioxol-4-one], the “inhibition of IL-1β production” value [1, 3] was “increased potency over the non-fluorinated INX-SM-3”.
With C[C@]12C=CC(=O)C=C1CC[C@H]1[C@@H]3C[C@H]4O[C@@H](c5ccc(CC67CC(N)(C6)C7)cc5)O[C@@]4(C(=O)CO)[C@@]3(C)C[C@H](O)[C@@]12F [INX-SM-13, (6aS,6bR,7S,8aS,8bS,10R,11aR,12aS,12bS)-10-(4-((3-aminobicyclo[1.1.1]pentan-1-yl)methyl)phenyl)-6b-fluoro-7-hydroxy-8b-(2-hydroxyacetyl)-6a,8a-dimethyl-1,2,6a,6b,7,8,8a,8b,11a,12,12a,12b-dodecahydro-4H-naphtho[2′,1′:4,5]indeno[1,2-d][1,3]dioxol-4-one] the “inhibition of IL-1β production” value [1, 3] was “did not lead to increased potency over the non-fluorinated payload”.
C[C@]12C=CC(=O)C=C1[C@@H](F)C[C@H]1[C@@H]3C[C@H]4O[C@H](c5ccc(CC67CC(N)(C6)C7)cc5)O[C@@]4(C(=O)CO)[C@@]3(C)C[C@H](O)[C@@]12F [INX-SM-74, (2S,6aS,6bR,7S,8aS,8bS,10S,11aR,12aS,12bS)-10-(4-((3-aminobicyclo[1.1.1]pentan-1-yl)methyl)phenyl)-2,6b-difluoro-7-hydroxy-8b-(2-hydroxyacetyl)-6a,8a-dimethyl-1,2,6a,6b,7,8,8a,8b,11a,12,12a,12b-dodecahydro-4H-naphtho[2′,1′:4,5]indeno[1,2-d][1,3]dioxol-4-one] was tested, and the “potency of free payloads (conclusions)” value [1] was “moderate potency albeit much weaker than the R stereoisomer with the same halogenation”.
With C[C@]12C=CC(=O)C=C1CC[C@@H]1[C@@H]2[C@@H](O)C[C@@]2(C)[C@H]1C[C@H]1O[C@H](c3cnc(Cc4cccc(N)c4)s3)O[C@]12C(=O)CO [INX-SM-56, (6aR,6bS,7S,8aS,8bS,10S,11aR,12aS,12bS)-10-(2-(3-aminobenzyl)thiazol-5-yl)-7-hydroxy-8b-(2-hydroxyacetyl)-6a,8a-dimethyl-1,2,6a,6b,7,8,8a,8b, 11a,12,12a,12b-dodecahydro-4H-naphtho[2′,1′:4,5]indeno[1,2-d][1,3]dioxol-4-one] the “inhibition of IL-1β production” value [1, 2] was “did not show inhibition”.
